Assay results from ChEMBL document CHEMBL1130458, “Inhibition of carboxypeptidase a by N-(4-t-Butylbenzoyl)-2-hydroxy-1-naphthaldehyde hydrazone” (Bioorg Med Chem Lett, 1997).

What was measured:
[1] = target: T1, Carboxypeptidase A1 (Bos taurus) (UniProt P00730); assay: Percentage inhibition of carboxypeptidase A (CPA, bovine, Type I) enzyme by the compound required to inhibit at 63 uM was evaluated
T1 sequence (whole entry): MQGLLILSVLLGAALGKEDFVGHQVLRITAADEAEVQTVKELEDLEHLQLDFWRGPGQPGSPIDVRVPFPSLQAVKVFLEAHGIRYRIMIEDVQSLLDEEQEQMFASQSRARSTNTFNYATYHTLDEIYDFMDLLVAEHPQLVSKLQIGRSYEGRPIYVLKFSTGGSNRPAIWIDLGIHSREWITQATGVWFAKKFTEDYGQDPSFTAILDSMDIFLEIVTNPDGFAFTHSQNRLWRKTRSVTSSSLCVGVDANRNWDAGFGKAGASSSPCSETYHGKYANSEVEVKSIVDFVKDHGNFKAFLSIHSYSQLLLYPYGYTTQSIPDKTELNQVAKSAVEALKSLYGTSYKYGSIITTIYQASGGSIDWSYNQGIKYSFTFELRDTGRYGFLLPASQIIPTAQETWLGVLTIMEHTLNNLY

[2] = target: T2, Angiotensin-converting enzyme (Oryctolagus cuniculus) (UniProt P12822); assay: Percentage inhibition of angiotensin converting enzyme (rabbit lung) by the compound required to inhibit at 63 uM was evaluated
T2 sequence (whole entry): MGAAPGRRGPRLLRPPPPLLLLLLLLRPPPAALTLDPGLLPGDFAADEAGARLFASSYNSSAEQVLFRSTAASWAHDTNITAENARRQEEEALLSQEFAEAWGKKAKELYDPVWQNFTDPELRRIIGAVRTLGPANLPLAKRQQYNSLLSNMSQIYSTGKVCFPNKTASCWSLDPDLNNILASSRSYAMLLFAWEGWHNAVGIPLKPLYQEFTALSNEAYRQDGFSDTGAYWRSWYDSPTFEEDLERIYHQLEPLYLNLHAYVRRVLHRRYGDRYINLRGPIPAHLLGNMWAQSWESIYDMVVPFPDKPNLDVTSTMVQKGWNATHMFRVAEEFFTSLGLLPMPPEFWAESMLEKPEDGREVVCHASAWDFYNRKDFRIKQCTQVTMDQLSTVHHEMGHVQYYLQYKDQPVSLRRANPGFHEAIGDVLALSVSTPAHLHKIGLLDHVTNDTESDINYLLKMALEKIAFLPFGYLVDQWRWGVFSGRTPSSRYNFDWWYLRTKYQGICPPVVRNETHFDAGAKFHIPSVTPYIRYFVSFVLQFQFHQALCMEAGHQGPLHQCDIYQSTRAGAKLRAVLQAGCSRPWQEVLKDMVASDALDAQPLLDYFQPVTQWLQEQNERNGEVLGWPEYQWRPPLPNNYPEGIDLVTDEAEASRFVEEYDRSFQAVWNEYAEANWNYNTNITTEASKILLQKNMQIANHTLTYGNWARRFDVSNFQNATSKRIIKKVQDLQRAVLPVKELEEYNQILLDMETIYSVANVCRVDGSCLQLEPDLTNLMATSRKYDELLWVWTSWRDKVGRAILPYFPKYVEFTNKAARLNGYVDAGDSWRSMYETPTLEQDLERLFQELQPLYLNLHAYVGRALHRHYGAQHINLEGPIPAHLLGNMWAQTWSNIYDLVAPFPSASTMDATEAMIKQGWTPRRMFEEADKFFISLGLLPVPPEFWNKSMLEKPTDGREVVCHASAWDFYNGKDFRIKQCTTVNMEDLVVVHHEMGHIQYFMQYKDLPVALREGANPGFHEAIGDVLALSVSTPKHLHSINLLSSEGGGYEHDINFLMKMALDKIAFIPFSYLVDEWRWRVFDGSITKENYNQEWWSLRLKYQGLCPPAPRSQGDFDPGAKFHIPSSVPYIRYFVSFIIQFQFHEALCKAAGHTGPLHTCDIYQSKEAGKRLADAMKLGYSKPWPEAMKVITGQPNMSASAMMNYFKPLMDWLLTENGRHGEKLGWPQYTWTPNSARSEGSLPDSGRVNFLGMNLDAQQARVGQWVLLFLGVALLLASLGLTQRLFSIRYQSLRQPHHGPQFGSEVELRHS

Carboxypeptidase A1 = target: T3, Carboxypeptidase A1 (Bos taurus, UniProt P00730); assay: Inhibitory concentration required to inhibit carboxypeptidase A (CPA, bovine, Type I) was evaluated
T3 sequence (P00730 whole entry): T1 sequence (whole entry)

Row | inhibition [1] | inhibition [2] | IC50 (Carboxypeptidase A1) | SMILES
1 | 17% | 2% |  | CC(C)(C)c1ccc(C(=O)N/N=C/c2cccc3ccccc23)cc1
2 | 33% | 3% |  | CC(C)(C)c1ccc(C(=O)N/N=C/c2ccccc2O)cc1
3 |  | 5% | 29 µM | CC(C)(C)c1ccc(C(=O)N/N=C/c2c(O)ccc3ccccc23)cc1
